{
  "source": "patent US8778643B2",
  "about": "“Methods for increasing lipid levels and producing triacylglycerols in algae” (priority 2012, dated 2014)",
  "key": {"Nannochloris sp.": {"system": "Nannochloris sp.", "test": "Microplate assay: growth (absorbance 680 nm) and intracellular lipids (Nile Red fluorescence)", "type": "cell-based", "details": "for Nile Red Fluorescence % Increase: initial screening, p<0.05; for Absorbance (percent increase) / Nile Red percent increase: initial microplate screen, relative to control"}, "Nannochloropsis salina": {"system": "Nannochloropsis salina", "details": "for Nile Red Fluorescence % Increase / % Inc / % Lipid increase based on Nile red fluorescence intensity / % Increase based on Nile Red Fluorescence Intensity: N. salina; for Nile Red Fluorescence % Increase: compounds tested at 20 μM, initial screening, p<0.05; for % Inc: increase of lipid production; for % Lipid increase based on Nile red fluorescence intensity: DMSO, t=day 0; for % Increase based on Nile Red Fluorescence Intensity: added t=day 0"}, "[1]": {"system": "Phaeodactylum tricornutum", "test": "Microplate assay: growth (absorbance 680 nm) and intracellular lipids (Nile Red fluorescence)", "type": "cell-based", "details": "for % Inc: increase of lipid production"}, "[2]": {"details": "Nannochloris sp., compounds tested at 200 nM"}, "[3]": {"details": "Nannochloris sp., compounds tested at 20 μM"}, "[4]": {"details": "200 nM, initial microplate screen, relative to control"}, "[5]": {"details": "40 μM, dose-response microplate screen"}},
  "note": "Read-outs that look alike come from different tables or passages of the source.",
  "data": [
    {"smiles": "CC(=O)N1CCN(c2ccc(OC[C@H]3CO[C@](Cn4ccnc4)(c4ccc(Cl)cc4Cl)O3)cc2)CC1", "note": "(relative stereo) [Ketoconazole, cis-1-Acetyl-4-[4-[[2-(2,4-dichlorophenyl)-2-(1H-imidazol-1-ylmethyl)-1,3-dioxolan-4-yl]methoxy]phenyl]piperazine]", "values": [
      {"measurement": "Nile Red Fluorescence % Increase", "setting": "Nannochloris sp.; [2]", "result": 258.9, "unit": "%"},
      {"measurement": "Nile Red Fluorescence % Increase", "setting": "Nannochloropsis salina", "result": 32.0, "unit": "%"}
    ]},
    {"smiles": "CN(NO)C1=CC(=O)C(=O)C=C1", "note": "[3,4-dephostatin, 4-[(hydroxyamino)-methylamino]cyclohexa-3,5-diene-1,2-dione]", "values": [
      {"measurement": "% increase (lipid production)", "setting": "[1]; 0.0252-165.6 nM (H2O)", "result": "5-46%"},
      {"measurement": "% increase (lipid production)", "setting": "[1]; 0.0252-165.6 nM, not marked H2O", "result": "12-33%"},
      {"measurement": "% increase (lipid production)", "setting": "Nannochloropsis salina; 0.0252-55.2 nM", "result": "8-40%"},
      {"measurement": "% increase (lipid production)", "setting": "Nannochloropsis salina; 0.0252-165.6 nM (H2O)", "result": "14-72%"}
    ]},
    {"smiles": "Oc1cc(O)c2c(c1)O[C@H](c1ccc(O)c(O)c1)[C@@H](O)C2", "note": "[(+)-Catechin, (2R,3S)-2-(3,4-dihydroxyphenyl)-3,4-dihydro-2H-chromene-3,5,7-triol]", "values": [
      {"measurement": "% Inc", "setting": "Nannochloropsis salina; best conc. 39 nM", "result": 84.21, "unit": "%"}
    ]},
    {"smiles": "O=c1cc(-c2ccc(O)cc2)oc2cc(O)cc(O)c12", "note": "[Apigenin, 5,7-Dihydroxy-2-(4-hydroxyphenyl)-4H-1-benzopyran-4-one]", "values": [
      {"measurement": "Absorbance (percent increase)", "setting": "Nannochloris sp.; 20 μM", "result": "−7.3", "unit": "%"},
      {"measurement": "Nile Red percent increase", "setting": "Nannochloris sp.; 20 μM", "result": 59.9, "unit": "%"},
      {"measurement": "Nile Red Fluorescence % Increase", "setting": "Nannochloris sp.; [3]", "result": 136.7, "unit": "%"},
      {"measurement": "Nile Red Fluorescence % Increase", "setting": "Nannochloropsis salina", "result": 34.3, "unit": "%"},
      {"measurement": "% Inc", "setting": "Nannochloropsis salina; best conc. 39 nM", "result": 90.17, "unit": "%"}
    ]},
    {"smiles": "O=C1O[C@H]([C@@H](O)CO)C(O)=C1O", "note": "[Ascorbic acid, (2R)-2-[(1S)-1,2-dihydroxyethyl]-3,4-dihydroxy-2H-furan-5-one]", "values": [
      {"measurement": "% Inc", "setting": "[1]; P. tricornutum, best conc. 10 nM", "result": 57.28, "unit": "%"}
    ]},
    {"smiles": "CCNc1nc(Cl)nc(NC(C)C)n1", "note": "[Atrazane, 1-Chloro-3-ethylamino-5-isopropylamino-2,4,6-triazine]", "values": [
      {"measurement": "Absorbance (percent increase)", "setting": "Nannochloris sp.; 200 nM", "result": "−1.7", "unit": "%"},
      {"measurement": "Nile Red percent increase", "setting": "Nannochloris sp.; 200 nM", "result": 86.2, "unit": "%"}
    ]},
    {"smiles": "c1ccc(CNc2ncnc3[nH]cnc23)cc1", "note": "[Benzylamino Purine]", "values": [
      {"measurement": "% Inc", "setting": "[1]; P. tricornutum, best conc. 40 μM", "result": 120.94, "unit": "%"}
    ]},
    {"smiles": "c1ccc(CNc2ncnc3nc[nH]c23)cc1", "note": "[Benzylaminopurine, N-(phenylmethyl)-7H-purin-6-amine]", "values": [
      {"measurement": "Absorbance (percent increase)", "setting": "[1]; [4]", "result": "−14.6", "unit": "%"},
      {"measurement": "Nile Red percent increase", "setting": "[1]; [4]", "result": 105.9, "unit": "%"},
      {"measurement": "Nile Red Fluorescence % Increase", "setting": "[1]; P. tricornutum, compounds tested at 200 nM, initial screening, p<0.05", "result": 105.9, "unit": "%"}
    ]},
    {"smiles": "O=C1C(Cl)=C(NCCN2CCOCC2)C(=O)c2ncccc21", "note": "[CDC25]", "values": [
      {"measurement": "Nile Red Fluorescence % Increase", "setting": "Nannochloris sp.; [2]", "result": 28.2, "unit": "%"},
      {"measurement": "Nile Red Fluorescence % Increase", "setting": "Nannochloris sp.; [3]", "result": 130.9, "unit": "%"}
    ]},
    {"smiles": "O=C1NC(=O)c2c1c1c3ccccc3[nH]c1c1[nH]c3cc(Br)ccc3c21", "note": "[CDK4 I1, 2-Bromo-12,13-dihydro-5H-indolo[2,3-a]pyrrolo[3,4-c]carbazole-5,7(6H)-dione]", "values": [
      {"measurement": "Nile Red percent increase", "setting": "[1]; [5]", "result": 129, "unit": "%"},
      {"measurement": "% Inc", "setting": "[1]; P. tricornutum, best conc. 10 μM", "result": 68.76, "unit": "%"},
      {"measurement": "% Lipid increase based on Nile red fluorescence intensity", "setting": "Nannochloropsis salina; 40 μM", "result": 49, "unit": "%"},
      {"measurement": "% Increase based on Nile Red Fluorescence Intensity", "setting": "Nannochloropsis salina; 40 μM, DMSO delivery", "result": 49, "unit": "%"}
    ]},
    {"smiles": "CCNc1cc(N[C@H]2CC[C@H](O)CC2)nc(Nc2ccc3c(ccn3Cc3ccccc3)c2)n1", "note": "[CDK4 I4, trans-4-((6-(ethylamino)-2-((1-(phenylmethyl)-1H-indol-5-yl)amino)-4-pyrimidinyl)amino)-cyclohexanol]", "values": [
      {"measurement": "Nile Red percent increase", "setting": "Nannochloropsis salina; [5]", "result": 144, "unit": "%"},
      {"measurement": "% Inc", "setting": "Nannochloropsis salina; best conc. 40 μM", "result": 144.22, "unit": "%"}
    ]},
    {"smiles": "Cn1c(=O)c2c(ncn2C)n(C)c1=O", "note": "[Caffeine, 1,3,7-trimethyl-1H-purine-2,6(3H,7H)-dione]", "values": [
      {"measurement": "Absorbance (percent increase)", "setting": "Nannochloris sp.; 200 nM", "result": "−7.5", "unit": "%"},
      {"measurement": "Nile Red percent increase", "setting": "Nannochloris sp.; 200 nM", "result": 60.4, "unit": "%"}
    ]},
    {"smiles": "C/C=C/C/C=C/CCC(=O)[C@H]1O[C@H]1C(N)=O", "note": "[Cerulenin, (2R,3S)-3-[(4E,7E)-Nona-4,7-dienoyl]oxirane-2-carboxamide]", "values": [
      {"measurement": "Absorbance (percent increase)", "setting": "Nannochloris sp.; 200 nM", "result": "−13.2", "unit": "%"},
      {"measurement": "Nile Red percent increase", "setting": "Nannochloris sp.; 200 nM", "result": 94.6, "unit": "%"},
      {"measurement": "Nile Red Fluorescence % Increase", "setting": "Nannochloris sp.; [2]", "result": 107.9, "unit": "%"}
    ]},
    {"smiles": "O=C(O)CC(O)(CC(=O)O)C(=O)O", "note": "[Citric acid, 2-hydroxypropane-1,2,3-tricarboxylic acid]", "values": [
      {"measurement": "Absorbance (percent increase)", "setting": "Nannochloris sp.; 200 nM", "result": "−6.5", "unit": "%"},
      {"measurement": "Nile Red percent increase", "setting": "Nannochloris sp.; 200 nM", "result": 55.41, "unit": "%"}
    ]},
    {"smiles": "O=c1ccc2cc(O)c(O)cc2o1", "note": "[Esculetin, 6,7-Dihydroxy-2-chromenone]", "values": [
      {"measurement": "% increase (lipid production)", "setting": "[1]; 0.0252-18.4 nM", "result": "3-79%"},
      {"measurement": "% increase (lipid production)", "setting": "Nannochloropsis salina; 0.0252-6.13 nM (H2O)", "result": "5-31 (H2O) %"},
      {"measurement": "% increase (lipid production)", "setting": "Nannochloropsis salina; 0.0757-55.2 nM, DMSO delivery", "result": "1-30%"},
      {"measurement": "% Lipid increase based on Nile red fluorescence intensity", "setting": "Nannochloropsis salina; 6.13 nM", "result": 62, "unit": "%"},
      {"measurement": "% Increase based on Nile Red Fluorescence Intensity", "setting": "Nannochloropsis salina; 681 pM, DMSO delivery", "result": 50, "unit": "%"},
      {"measurement": "% Increase based on Nile Red Fluorescence Intensity", "setting": "Nannochloropsis salina; 6.13 nM, DMSO delivery", "result": 62, "unit": "%"}
    ]},
    {"smiles": "NC(=O)c1cccc(-c2cccc(OC(=O)NC3CCCCC3)c2)c1", "note": "[FAAH Inhibitor II, 3′-Carbamoyl-biphenyl-3-yl-cyclohexylcarbamate]", "values": [
      {"measurement": "% Increase based on Nile Red Fluorescence Intensity", "setting": "Nannochloris sp.", "result": 167, "unit": "%"},
      {"measurement": "% Lipid increase based on Nile red fluorescence intensity", "setting": "Nannochloris sp.; Nannochloris sp., 0.6 nM, (water), t=day 0", "result": 182, "unit": "%"},
      {"measurement": "% Increase based on Nile Red Fluorescence Intensity", "setting": "Nannochloris sp.; Nannochloris sp., 0.2 nM, dissolved in water, added t=day 0", "result": 145, "unit": "%"},
      {"measurement": "% Increase based on Nile Red Fluorescence Intensity", "setting": "Nannochloris sp.; Nannochloris sp., 0.6 nM, dissolved in water, added t=day 0", "result": 182, "unit": "%"},
      {"measurement": "% Increase based on Nile Red Fluorescence Intensity", "setting": "Nannochloris sp.; Nannochloris sp., 49 nM, dissolved in water, added t=day 0", "result": 154, "unit": "%"},
      {"measurement": "% Increase based on Nile Red Fluorescence Intensity", "setting": "Nannochloris sp.; Nannochloris sp., 1.3 μM, dissolved in water, added t=day 0", "result": 144, "unit": "%"}
    ]},
    {"smiles": "O=c1c(-c2ccc(O)cc2)coc2cc(O)cc(O)c12", "note": "[Genistein, 5,7-Dihydroxy-3-(4-hydroxyphenyl)chromen-4-one]", "values": [
      {"measurement": "% increase (lipid production)", "setting": "[1]; 54 nM-40 μM (H2O)", "result": "16-70%"},
      {"measurement": "% increase (lipid production)", "setting": "Nannochloropsis salina; […]-40 μM", "result": "11-85%"}
    ]}
  ]
}
